Laboratory results: the CheMixHub ionic liquid set
Where “and” joins values, the source holds several entries; their conditions need not be identical. Identical values can stand only once. ± gives the uncertainty stated by the source.

Experiment: xn = mol fraction of the nth substance listed

CC(=O)[O-].CCCC[NH2+]CCO + CCCC[n+]1ccn(C)c1.COP(=O)([O-])OC
viscosity [mPa·s], 101 kPa
Conditions	x1 = 0.1014	x1 = 0.172	x1 = 0.2979	x1 = 0.4067	x1 = 0.4989	x1 = 0.6316	x1 = 0.7065	x1 = 0.8011	x1 = 0.8913	x1 = 1
278.15 K	–	–	–	–	–	–	–	–	–	6138 ± 420
283.15 K	1725 ± 85	1555 ± 74	1328 ± 61	1208 ± 55	1161 ± 52	1288 ± 60	1457 ± 71	1793 ± 93	2360 ± 130	3634 ± 220
288.15 K	1103 ± 48	997 ± 42	855 ± 35	781 ± 31	751 ± 30	825 ± 34	930 ± 40	1135 ± 52	1475 ± 73	2230 ± 120
293.15 K	730 ± 28	662 ± 24	571 ± 20	522 ± 18	503 ± 17	548 ± 20	614 ± 23	741 ± 30	952 ± 42	1412 ± 70
298.15 K	499 ± 17	454 ± 15	392 ± 12	360 ± 11	346 ± 10	375 ± 12	417 ± 14	499 ± 18	633 ± 25	921 ± 41
303.15 K	351 ± 10	319.8 ± 8.9	277.3 ± 7.4	254.3 ± 6.7	244.8 ± 6.5	263.1 ± 7.3	290.6 ± 8.6	344 ± 11	431 ± 15	617 ± 24
308.15 K	253.2 ± 6.3	231.1 ± 5.5	200.9 ± 4.6	184.2 ± 4.2	177.2 ± 4.1	189.1 ± 4.6	207.4 ± 5.4	243.2 ± 6.9	301 ± 9.3	423 ± 15
313.15 K	186.8 ± 4	170.8 ± 3.5	148.7 ± 3	136.5 ± 2.8	131.1 ± 2.7	138.9 ± 3.1	151.3 ± 3.5	175.7 ± 4.4	214.8 ± 5.9	297 ± 9.3
318.15 K	140.7 ± 2.6	128.9 ± 2.3	112.4 ± 2	103.1 ± 1.9	98.9 ± 1.9	104 ± 2.1	112.6 ± 2.4	129.5 ± 2.9	156.5 ± 3.9	212.7 ± 6
323.15 K	108.1 ± 1.8	99.1 ± 1.6	86.6 ± 1.4	79.4 ± 1.3	76 ± 1.3	79.4 ± 1.5	85.4 ± 1.7	97.2 ± 2.1	116.1 ± 2.7	155.3 ± 4
328.15 K	84.5 ± 1.3	77.6 ± 1.1	67.8 ± 1	62.2 ± 1	59.4 ± 1	61.6 ± 1.1	65.9 ± 1.3	74.2 ± 1.5	87.7 ± 1.9	115.3 ± 2.7
333.15 K	67.08 ± 0.92	61.68 ± 0.87	53.98 ± 0.81	49.43 ± 0.8	47.16 ± 0.8	48.5 ± 0.88	51.57 ± 0.96	57.6 ± 1.1	67.3 ± 1.4	87 ± 1.9
338.15 K	54.05 ± 0.71	49.76 ± 0.7	43.58 ± 0.66	39.88 ± 0.64	37.96 ± 0.64	38.75 ± 0.7	40.98 ± 0.77	45.33 ± 0.89	52.4 ± 1.1	66.7 ± 1.4
343.15 K	44.14 ± 0.6	40.69 ± 0.57	35.65 ± 0.54	32.6 ± 0.53	30.96 ± 0.52	31.37 ± 0.57	33 ± 0.62	36.18 ± 0.71	41.36 ± 0.85	51.9 ± 1.1
348.15 K	36.5 ± 0.49	33.69 ± 0.47	29.51 ± 0.45	26.96 ± 0.43	25.56 ± 0.43	25.71 ± 0.46	26.9 ± 0.51	29.24 ± 0.57	33.08 ± 0.68	40.87 ± 0.88
353.15 K	30.53 ± 0.41	28.22 ± 0.4	24.71 ± 0.37	22.56 ± 0.36	21.33 ± 0.36	21.31 ± 0.39	22.18 ± 0.42	23.9 ± 0.47	26.78 ± 0.55	32.6 ± 0.7
358.15 K	25.8 ± 0.35	23.88 ± 0.34	20.91 ± 0.32	19.07 ± 0.31	17.99 ± 0.3	17.86 ± 0.32	18.48 ± 0.35	19.75 ± 0.39	21.91 ± 0.45	26.29 ± 0.56
363.15 K	22.02 ± 0.3	20.4 ± 0.29	17.86 ± 0.27	16.27 ± 0.26	15.31 ± 0.26	15.1 ± 0.27	15.55 ± 0.29	16.48 ± 0.32	18.11 ± 0.37	21.43 ± 0.46
368.15 K	18.97 ± 0.26	17.58 ± 0.25	15.4 ± 0.23	14.01 ± 0.23	13.15 ± 0.22	12.89 ± 0.23	13.21 ± 0.25	13.89 ± 0.27	15.12 ± 0.31	17.63 ± 0.38
373.15 K	16.47 ± 0.22	15.28 ± 0.21	13.38 ± 0.2	12.15 ± 0.2	11.38 ± 0.19	11.09 ± 0.2	11.3 ± 0.21	11.8 ± 0.23	12.72 ± 0.26	14.64 ± 0.31

CS(C)=O + CCCC[n+]1ccn(C)c1.F[B-](F)(F)F
100 kPa, x2 = 0
Conditions	electrical conductivity [S/m]	viscosity
298.15 K	0.042 ± 0.001	1.99 ± 0.04 mPa·s and 2.012 ± 0.025 mPa·s
303.15 K	–	1.8 ± 0.04 mPa·s
308.15 K	–	1.65 ± 0.04 mPa·s
313.15 K	–	1.54 ± 0.03 mPa·s
